Measurements reported in patent publication EP4772530A1, “PEPTIDE TARGETING SOMATOSTATIN RECEPTOR, DRUG CONJUGATE AND USE THEREOF” (Mainline Biosciences (Shanghai) Co., Ltd., priority 2023, dated 2025).
pEC50: −log10 of the molar value. “And” between values parts separate entries of the source, which are not always exact repeats. Equal values may be shown once. Where a name gives a salt, the structure may show the parent alone. *1 amine or outer side, *2 acyl side, *3 side chain or, on linkers, in order; H or OH if unused. Where a SMILES comes first, the peptide text is derived from it. Bridges are numbered along the chain shown (N, C = ends). Roman numbers before positions name the chains, in order. [ ]: non-standard residue; d: D form. The star is where a group is joined. Hexanoyl(6-succinimido-3yl) = O=C1CC([*:1])C(=O)N1CCCCCC(=O)[*:2]; Dolaproine = CO[C@@H]([C@@H]1CCCN1)[C@@H](C)C(=O)O; Dil = CC[C@H](C)[C@H](NC)[C@@H](CC(=O)O)OC; PABC = O=C(OCc1ccc(N[*:1])cc1)[*:2]; PEG6 = NCCOCCOCCOCCOCCOCCOCCC(=O)O; X2 = C[C@@H](N*)[C@@H](O)c1ccccc1; Cit = NC(=O)NCCC[C@H](N)C(=O)O; NMeV = CN[C@H](C(=O)O)C(C)C; AEEA = NCCOCCOCC(=O)O

Key:
SSTR2 = molecular target: T1, SSTR2 (Homo sapiens, UniProt P30874); test: SSTR2 cAMP test; type: cell-based; conditions: for pEC50: SSTR2/CHO cells, Forskolin, cAMP activation rate; for activity at 50 µM: Max Dose 50000 nM
T1 construct: expressed in transfected cells; host or cells: CHO cells (SSTR2/CHO)
T1 sequence (P30874 whole entry): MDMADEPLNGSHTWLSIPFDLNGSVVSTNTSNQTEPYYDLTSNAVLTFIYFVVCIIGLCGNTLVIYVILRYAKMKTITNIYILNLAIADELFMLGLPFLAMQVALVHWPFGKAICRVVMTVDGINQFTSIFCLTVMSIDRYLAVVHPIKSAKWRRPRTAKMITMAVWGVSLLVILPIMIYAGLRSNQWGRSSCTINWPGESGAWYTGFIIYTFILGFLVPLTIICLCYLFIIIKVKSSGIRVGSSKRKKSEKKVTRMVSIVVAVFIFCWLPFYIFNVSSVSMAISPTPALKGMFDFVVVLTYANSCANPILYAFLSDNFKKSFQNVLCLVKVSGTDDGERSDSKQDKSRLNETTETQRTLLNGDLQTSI
Experimental: • 1) Compound preparation: The test compound was diluted by 4-fold with DMSO to obtain 10 different concentration points. Approximately 100 nL of the diluted compound was then transferred to a cell reaction plate and centrifuged for later use. • 2) Cell preparation:The cultured SSTR2/CHO cells were collected into a sterile centrifuge tube, and the supernatant was discarded by centrifugation. • 3) The cells were resuspended in assay buffer, counted using a Vi-cell counter, and diluted with assay buffer. • 4) Approximately 100 nL of 100 µM Forskolin was transferred into the cell reaction plate using an Echo and centrifuged. Then, 10 µL of assay buffer containing the cells was added and incubated. • 5) Approximately 10 µL of cAMP detection reagent solution was added to the corresponding wells of the cell reaction plate, and incubated at room temperature in the dark. • 6) The plate was read using a microplate reader. The final value was determined as the ratio of OD at 665 nm to that at 615 nm. • 7) The cAMP value was calculated for each well: Activity (%)=(signal value of sample well - mean signal value of low-signal control wells)/ (mean signal value of high-signal control wells - mean signal value of low-signal control wells). Fitting was performed using the "Nonlinear regression (curve fit)-log(agonist) vs. response -- Variable slope" model in GraphPad Prism 5.0, with the log-transformed compound concentration on the x-axis and cAMP activation rate on the y-axis. The EC50 value of the sample was calculated accordingly. Table 2: SSTR2 cAMP Test Results

[1] = tested on: Human multiple myeloma MM.1S cells; test: EX3.3 in vivo pharmacodynamics, MM.1S subcutaneous xenograft model; design: species or system CB17 SCID mice; conditions: for Tumor Volume (Mean ± SEM): Ixazomib Citrate 4 mg/kg, Oral Gavage, Twice Weekly
Experimental: Human multiple myeloma MM.1S cells were suspended and cultured in vitro in 1640 medium containing 10% fetal bovine serum, 100 U/mL penicillin, and 100 µg/mL streptomycin in a 5% CO2 incubator at 37°C. The suspended cells were collected by centrifugation twice a week and adherent cells were digested with trypsin-EDTA to prepare a cell suspension for subculture. When the cell saturation was 80%-90% and the cell number reached the requirement, the cells were collected, counted, and inoculated.
CB17 SCID mice, female, 6-8 weeks old, weighing 18-22 g, provided by Zhejiang Vital River Laboratory Animal Technology Co., Ltd.
Each mouse was subcutaneously injected with 100 µL of PBS containing 5×10^6 MM.1S cells + 100 µL of Matrigel (final volume: 200 µL) at the axilla of the right forelimb. At 20 days after injection, when the average tumor volume reached 109 mm^3, mice were grouped for dosing (vehicle control,Ixazomib Citrate, and Example 1 treatment groups, with 6 animals per group). The Ixazomib Citrate group was orally administered by gavage (4 mg/kg) twice a week; the vehicle control group (5%DMSO + 95% normal saline) and the Example 1 treatment group (1.75 mg/kg) were slowly intravenously injected for about 30 seconds each time, twice a week.
The experimental indicators were used to investigate whether tumor growth was inhibited, delayed, or cured. The tumor diameter was measured twice a week using a vernier caliper. The tumor volume was calculated as follows: V = 0.5a×b^2, where a and b were the long and short diameters of the tumor, respectively.
The anti-tumor efficacy of the drug was evaluated based on TGI (%) or relative tumor proliferation rate T/C (%). TGI (%) was the tumor growth inhibition rate. TGI (%) was calculated as follows: TGI (%)=[(1 -(mean tumor volume at the end of dosing in a certain treatment group - mean tumor volume at the start of dosing in the treatment group))/ (mean tumor volume at the end of dosing in the vehicle control group - mean tumor volume at the start of dosing in the vehicle control group)]× 100%.
T/C (%) was calculated as follows:T/C (%)= TRTV/ CRTV× 100 %. Based on the results of tumor measurement, the relative tumor volume (RTV) was calculated as follows: RTV = Vt/V0, where V0 was the mean tumor volume measured at the time of grouping (i.e. d0), and Vt was the mean tumor volume at a certain measurement. Data on the same day were taken for TRTV and CRTV.
Tumor weights were measured at the end of the experiment and T/Cweight was calculated, where Tweight and Cweight were tumor weights in the treatment and vehicle control groups, respectively.
Statistical analysis, including the mean and standard error (SEM) of tumor volume at each time point in each group (see Table 5-1 in Section 5.2 for specific data), was performed to evaluate differences between groups based on data from the treatment group on Day 18 post-dose at the end of the experiment. A t-test was used for comparison between two groups, and one-way ANOVA was used for comparison among three or more groups. If there was a significant difference in F value, the Games-Howell method was used for testing; if there was no significant difference in F value, the Dunnet (2-sided) method was used for analysis. All data were analyzed using SPSS 17.0.

[2] = 18 days after the start of dosing, Ixazomib Citrate 4 mg/kg oral gavage twice a week

For CC(C)C[C@H](NC(=O)[C@H](CCCNC(=N)N)NC(=O)[C@@H](N)CCCNC(=N)N)C(=O)N[C@@H](Cc1ccccc1)C(=O)N[C@H]1CSSC[C@@H](C(=O)N[C@H](C(=O)N[C@@H](Cc2c[nH]c3ccccc23)C(=O)N[C@@H](CCCNC(=N)N)C(=O)N[C@@H](CC(=O)O)C(N)=O)[C@@H](C)O)NC(=O)[C@H]([C@@H](C)O)NC(=O)[C@H](CCCCN)NC(=O)[C@@H](Cc2c[nH]c3ccccc23)NC(=O)[C@H](Cc2ccccc2)NC1=O [SEQ ID No. 2, H-Arg-Arg-Leu-Phe-[Cys-Phe-D-Trp-Lys-Thr-Cys]-Thr-Trp-Arg-Asp-NH2] (H-RRLFCF[dW]KTCTWRD-NH2; disulfide 5-10), the activity at 150 µM (SSTR2; Max Dose 150000 nM) was 99.1% and the pEC50 (SSTR2) was 7.45.
C[C@@H](O)[C@@H]1NC(=O)[C@H](CCCCN)NC(=O)[C@H](Cc2c[nH]c3ccccc23)NC(=O)[C@H](Cc2ccccc2)NC(=O)[C@H](Cc2ccccc2)NC(=O)[C@H](CC(N)=O)NC(=O)[C@H](CCCCN)NC(=O)[C@@H](NC(=O)[C@@H]2CCCN2)CSSC[C@@H](C(=O)N[C@@H](CCCCN)C(=O)O)NC(=O)[C@H](CO)NC(=O)[C@H](CO)NC(=O)[C@H](Cc2ccccc2)NC1=O [Cortistatin14, reference compound] (H-PCKNFFWKTFSSCK-OH; disulfide 2-13) gave an activity at 1 µM (SSTR2; Max Dose 1000 nM) of 99.7% and a pEC50 (SSTR2) of 8.86.
CC[C@H](C)[C@@H]([C@@H](CC(=O)N1CCC[C@H]1[C@H](OC)[C@@H](C)C(=O)N[C@H](C)[C@@H](O)c1ccccc1)OC)N(C)C(=O)[C@@H](NC(=O)[C@H](C(C)C)N(C)C(=O)OCc1ccc(NC(=O)[C@H](CCCNC(N)=O)NC(=O)[C@@H](NC(=O)CCCCCN2C(=O)CC(SC[C@H](NC(C)=O)C(=O)NCCOCCOCC(=O)NCCOCCOCC(=O)NCCOCCOCC(=O)N[C@@H](CCCNC(=N)N)C(=O)N[C@@H](CCCNC(=N)N)C(=O)N[C@@H](CC(C)C)C(=O)N[C@@H](Cc3ccccc3)C(=O)N[C@H]3CSSC[C@@H](C(=O)N[C@H](C(=O)N[C@@H](Cc4c[nH]c5ccccc45)C(=O)N[C@@H](CCCNC(=N)N)C(=O)N[C@@H](CC(=O)O)C(N)=O)[C@@H](C)O)NC(=O)[C@H]([C@@H](C)O)NC(=O)[C@H](CCCCN)NC(=O)[C@@H](Cc4c[nH]c5ccccc45)NC(=O)[C@H](Cc4ccccc4)NC3=O)C2=O)C(C)C)cc1)C(C)C (stereo partly drawn) [Example 8, Ac-Cys(MC-Val-Cit-PABC-MMAE)-AEEA-AEEA-AEEA-Arg-Arg-Leu-Phe-[Cys-Phe-D-Trp-Lys-Thr-Cys]-Thr-Trp-Arg-Asp-NH2] (I: Ac-C[AEEA][AEEA][AEEA]RRLFCF[dW]KTCTWRD-NH2 / II: V[Cit][PABC][NMeV]V[Dil][Dolaproine]-X2; linker I:1-II:N via Hexanoyl(6-succinimido-3yl); disulfide I:9-I:14) gave an activity at 50 µM (SSTR2) of 98.4% and a pEC50 (SSTR2) of 6.39.
CC[C@H](C)[C@@H]([C@@H](CC(=O)N1CCC[C@H]1[C@H](OC)[C@@H](C)C(=O)N[C@H](C)[C@@H](O)c1ccccc1)OC)N(C)C(=O)[C@@H](NC(=O)[C@H](C(C)C)N(C)C(=O)OCc1ccc(NC(=O)[C@H](CCCNC(N)=O)NC(=O)[C@@H](NC(=O)CCCCCN2C(=O)CC(SC[C@H](NC(=O)CCOCCOCCOCCOCCOCCOCCN)C(=O)NCCOCCOCCOCCOCCOCCOCCC(=O)N[C@@H](CCCNC(=N)N)C(=O)N[C@@H](CCCNC(=N)N)C(=O)N[C@@H](CC(C)C)C(=O)N[C@@H](Cc3ccccc3)C(=O)N[C@H]3CSSC[C@@H](C(=O)N[C@H](C(=O)N[C@@H](Cc4c[nH]c5ccccc45)C(=O)N[C@@H](CCCNC(=N)N)C(=O)N[C@@H](CC(=O)O)C(N)=O)[C@@H](C)O)NC(=O)[C@H]([C@@H](C)O)NC(=O)[C@H](CCCCN)NC(=O)[C@@H](Cc4c[nH]c5ccccc45)NC(=O)[C@H](Cc4ccc(O)cc4)NC3=O)C2=O)C(C)C)cc1)C(C)C (stereo partly drawn) [Example 2, PEG6-Cys(MC-Val-Cit-PABC-MMAE)-PEG6-Arg-Arg-Leu-Phe-[Cys-Tyr-D-Trp-Lys-Thr-Cys]-Thr-Trp-Arg-Asp-NH2] (I: H-[PEG6]C[PEG6]RRLFCY[dW]KTCTWRD-NH2 / II: V[Cit][PABC][NMeV]V[Dil][Dolaproine]-X2; linker I:2-II:N via Hexanoyl(6-succinimido-3yl); disulfide I:8-I:13) was tested, and the activity at 50 µM (SSTR2) was 95.4% and the pEC50 (SSTR2) was 6.32.
Compound CC[C@H](C)[C@@H]([C@@H](CC(=O)N1CCC[C@H]1[C@H](OC)[C@@H](C)C(=O)N[C@H](C)[C@@H](O)c1ccccc1)OC)N(C)C(=O)[C@@H](NC(=O)[C@H](C(C)C)N(C)C(=O)OCc1ccc(NC(=O)[C@H](CCCNC(N)=O)NC(=O)[C@@H](NC(=O)CCCCCN2C(=O)CC(SC[C@H](NC(C)=O)C(=O)NCCOCCOCCOCCOCCOCCOCCC(=O)N[C@@H](CCCNC(=N)N)C(=O)N[C@@H](CCCNC(=N)N)C(=O)N[C@@H](CC(C)C)C(=O)N[C@@H](Cc3ccccc3)C(=O)N[C@H]3CSSC[C@@H](C(=O)N[C@H](C(=O)N[C@@H](Cc4c[nH]c5ccccc45)C(=O)N[C@@H](CCCNC(=N)N)C(=O)N[C@@H](CC(=O)O)C(N)=O)[C@@H](C)O)NC(=O)[C@H]([C@@H](C)O)NC(=O)[C@H](CCCCN)NC(=O)[C@@H](Cc4c[nH]c5ccccc45)NC(=O)[C@H](Cc4ccc(O)cc4)NC3=O)C2=O)C(C)C)cc1)C(C)C (stereo partly drawn) [Example 3, Ac-Cys(MC-Val-Cit-PABC-MMAE)-PEG6-Arg-Arg-Leu-Phe-[Cys-Tyr-D-Trp-Lys-Thr-Cys]-Thr-Trp-Arg-Asp-NH2] (I: Ac-C[PEG6]RRLFCY[dW]KTCTWRD-NH2 / II: V[Cit][PABC][NMeV]V[Dil][Dolaproine]-X2; linker I:1-II:N via Hexanoyl(6-succinimido-3yl); disulfide I:7-I:12) has an activity at 50 µM (SSTR2) of 95.4% and a pEC50 (SSTR2) of 6.25.
With CC(C)C[C@H](NC(=O)CNC(=O)c1cc(Cl)ccc1Cl)B1OC(=O)C(CC(=O)O)(CC(=O)O)O1 [Ixazomib Citrate] the T/C [1, 2] was 38.38%, the TGI [1, 2] was 71.76% and the “Tumor Volume (Mean ± SEM)” value ([1]; Day 0) was 109 ± 6 mm3. The “Tumor Volume (Mean ± SEM)” value ([1]; Day 4) was 245 ± 23 mm3, the “Tumor Volume (Mean ± SEM)” value ([1]; Day 7) was 337 ± 25 mm3 and the “Tumor Volume (Mean ± SEM)” value ([1]; Day 11) was 452 ± 59 mm3. For the same compound, the “Tumor Volume (Mean ± SEM)” value ([1]; Day 14) was 586 ± 100 mm3, the “Tumor Volume (Mean ± SEM)” value ([1]; Day 18) was 781 mm3 and 781 ± 177 mm3 and the “Tumor Volume (Mean ± SEM)” value ([1]; Day 21) was 925 ± 226 mm3. For the same compound, the “Tumor Volume (Mean ± SEM)” value ([1]; Day 25) was 1,139 ± 271 mm3 and the “Tumor Volume (Mean ± SEM)” value ([1]; Day 28) was 1,365 ± 331 mm3.
